Patent US10287251B2, “Pyrazole derivative or pharmaceutically acceptable salt thereof” (KISSEI PHARMACEUTICAL CO., LTD., priority 2015, dated 2019)

target: T1, TRPM8 (Rattus norvegicus, UniProt Q8R455); assay: Confirmation test of inhibitory effects on icilin-induced wet-dog shakes; format: in vivo; conditions: female SD rats, oral dose 0.3 mg/kg, icilin 1 mg/kg i.p. 1 hour after dosing, shakes counted for 5 minutes
T1 construct: from tissue; host or cells: whole animal, female SD rats (in vivo)
T1 sequence (Q8R455 whole entry): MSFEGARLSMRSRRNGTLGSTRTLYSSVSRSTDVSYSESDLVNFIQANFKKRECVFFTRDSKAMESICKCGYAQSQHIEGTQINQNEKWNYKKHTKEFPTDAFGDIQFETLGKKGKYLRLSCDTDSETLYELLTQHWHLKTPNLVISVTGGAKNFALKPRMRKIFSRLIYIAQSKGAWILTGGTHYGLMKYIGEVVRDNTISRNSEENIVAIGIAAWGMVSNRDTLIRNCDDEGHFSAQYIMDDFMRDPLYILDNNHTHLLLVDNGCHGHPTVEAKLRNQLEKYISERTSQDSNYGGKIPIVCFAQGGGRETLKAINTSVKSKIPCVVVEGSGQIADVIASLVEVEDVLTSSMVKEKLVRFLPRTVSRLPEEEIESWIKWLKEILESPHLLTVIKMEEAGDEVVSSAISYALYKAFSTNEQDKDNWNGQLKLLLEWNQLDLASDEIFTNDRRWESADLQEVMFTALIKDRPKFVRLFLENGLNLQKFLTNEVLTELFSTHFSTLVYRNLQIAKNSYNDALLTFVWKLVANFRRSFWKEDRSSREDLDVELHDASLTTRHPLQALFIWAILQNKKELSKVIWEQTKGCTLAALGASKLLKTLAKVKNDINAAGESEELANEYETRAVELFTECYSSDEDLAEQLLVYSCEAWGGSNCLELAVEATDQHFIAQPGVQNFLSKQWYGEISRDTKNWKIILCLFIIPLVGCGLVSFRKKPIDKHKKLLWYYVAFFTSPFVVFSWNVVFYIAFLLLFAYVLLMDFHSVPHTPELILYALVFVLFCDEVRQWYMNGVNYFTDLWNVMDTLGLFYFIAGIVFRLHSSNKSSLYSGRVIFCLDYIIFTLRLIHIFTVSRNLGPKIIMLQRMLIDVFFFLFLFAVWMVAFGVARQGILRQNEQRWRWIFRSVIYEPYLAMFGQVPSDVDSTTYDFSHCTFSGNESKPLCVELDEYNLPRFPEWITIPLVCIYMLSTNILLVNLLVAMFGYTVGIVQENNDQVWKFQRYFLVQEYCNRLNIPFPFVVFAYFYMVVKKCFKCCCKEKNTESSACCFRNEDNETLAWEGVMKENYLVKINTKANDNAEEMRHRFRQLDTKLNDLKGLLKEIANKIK
Excerpt: Further, TRPM8 inhibitory activity can be evaluated by the efficacy inhibiting the wet-dog shake action which is induced by the administration of Icilin, TRPM8 agonist. Furthermore, an effect on overactive bladder (OAB) can be evaluated by an elongation of micturition interval against overactive bladder induced by acetic acid in accordance with a similar method described in J. Urol., 2001, 166, 1142.
Confirmation Test of Inhibitory Effects on Icilin-induced Wet-dog Shakes
Test compounds were dissolved in dimethylacetamide (wako), and 0.5% methylcellulose solution (wako) was added to make the solution or suspension containing 5% of dimethylacetatnide. At a dose of 0.3 to 10 mg/kg/5mL of test compounds were orally administered to female SD rats. After 1 hour, wet-dog shakes were induced by the intraperitoneal injection of icilin (1 mg/kg) which was dissolved in polyethylene glycol 400 (wako). From 5 minutes after the administration of icilin, wet-dog shakes were counted for 5 minutes. For control example, vehicle (a mixture of dimethylacetamide (wako): 0.5% methylcellulose (wako)=5:95) was administrated similarly, and the number of wet-dog shakes was counted in the same manner. A percent inhibition of wet-dog shakes by test compound was calculated from the following formula: [1-(test compound wet-dog shake count/vehicle wet-dog shake count)]×100.

% inhibition of Wet-Dog Shake	SMILES
90%	CO[C@H](CO)[C@@H](Cc1ccccn1)NC(=O)c1ccccc1-c1cc(-c2ccc(F)cc2)[nH]n1 [Example 43-13]
54%	O=C(N[C@H](Cc1ncccc1F)[C@H](F)CO)c1cccc(F)c1-c1cc(-c2ccc(F)cc2)[nH]n1 [Example 43-41]

same assay, conditions: female SD rats, oral dose 1 mg/kg, icilin 1 mg/kg i.p. 1 hour after dosing, shakes counted for 5 minutes

% inhibition of Wet-Dog Shake	SMILES
82%	O=C(N[C@@H](CCO)Cc1ccccn1)c1cccc(F)c1-c1cc(-c2ccc(F)cc2)[nH]n1 [Example 1-1, 3-Fluoro-2-[5-(4-fluorophenyl)-1H-pyrazol-3-yl]-N-[(2R)-4-hydroxy-1-(pyridin-2-yl)butan-2-yl]benzamide]
59%	O=C(N[C@@H](CO)Cc1ccccn1)c1cccc(F)c1-c1cc(-c2ccc(F)cc2)[nH]n1 [Example 1-84]
56%	O=C(N[C@@H](CCO)Cc1ncccc1F)c1cccc(F)c1-c1cc(-c2ccc(F)cc2)[nH]n1 [Example 1-125]
66%	CO[C@H](CO)[C@@H](Cc1ncccn1)NC(=O)c1cccc(F)c1-c1cc(-c2ccc(F)cc2)[nH]n1 [Example 1-227]
100%	CO[C@H](CO)[C@@H](Cc1ccccn1)NC(=O)c1cccc(F)c1-c1n[nH]c(-c2ccc(F)cc2)c1F [Example 43-14]
73%	CCO[C@H](CO)[C@@H](Cc1ccccn1)NC(=O)c1cccc(F)c1-c1cc(-c2ccc(F)cc2)[nH]n1 [Example 43-15]
100%	O=C(N[C@H](Cc1ccccn1)[C@@H](F)CO)c1cccc(F)c1-c1cc(-c2ccc(F)cc2)[nH]n1 [Example 43-23]
100%	O=C(N[C@H](Cc1ccccn1)[C@H](F)CO)c1cccc(F)c1-c1cc(-c2ccc(F)cc2)[nH]n1 [Example 43-24]
79%	O=C(N[C@H](Cc1ncccn1)[C@H](F)CO)c1cccc(F)c1-c1cc(-c2ccc(F)cc2)[nH]n1 [Example 43-29]
100%	O=C(N[C@H](Cc1ccccn1)C(F)(F)CO)c1cccc(F)c1-c1cc(-c2ccc(F)cc2)[nH]n1 [Example 50-5]

Second part, the compound before the results:

SMILES	% inhibition of Wet-Dog Shake
O=C(N[C@H](Cc1ccccn1)[C@H](O)CO)c1ccccc1-c1n[nH]c(-c2ccc(F)cc2)c1F [Example 1-172]	100%
CO[C@H](CO)[C@@H](Cc1ncccn1)NC(=O)c1ccccc1-c1cc(-c2ccc(F)cc2)[nH]n1 [Example 1-238]	82%
CO[C@H](CO)[C@@H](Cc1ccccn1)NC(=O)c1ccccc1-c1n[nH]c(-c2ccc(Cl)cc2)c1F [Example 43-18]	85%
O=C(N[C@H](Cn1cccn1)[C@H](F)CO)c1cccc(F)c1-c1n[nH]c(-c2ccc(F)cc2)c1F [Example 43-39]	81%
O=C(N[C@H](Cc1ncccn1)[C@H](F)CO)c1cccc(F)c1-c1n[nH]c(-c2ccc(F)cc2)c1F [Example 50-10]	56%
COC[C@@H](O)[C@@H](Cn1nccn1)NC(=O)c1cccc(F)c1-c1cc(-c2ccc(F)cc2)[nH]n1 [Example 60-1]	92%

same assay, conditions: female SD rats, oral dose 3 mg/kg, icilin 1 mg/kg i.p. 1 hour after dosing, shakes counted for 5 minutes

% inhibition of Wet-Dog Shake	SMILES
98%	CCOC(c1ccccn1)[C@H](CO)NC(=O)c1cccc(F)c1-c1cc(-c2ccc(F)cc2)[nH]n1 (some centres unmarked) [Example 43-22]
100%	O=C(N[C@@H](Cc1ccccn1)[C@H](F)CO)c1cccc(F)c1-c1cc(-c2ccc(F)cc2)[nH]n1 [Example 43-25]
100%	CO[C@H](CO)[C@@H](Cc1ccccn1)NC(=O)c1cccc(F)c1-c1cc(-c2ccc(F)cc2F)[nH]n1 [Example 43-34]
48%	O=C1N[C@@H]([C@@H](Cc2ccccn2)NC(=O)c2cccc(F)c2-c2cc(-c3ccc(F)cc3)[nH]n2)CO1 [Example 47-1, 3-Fluoro-2-[5-(4-fluorophenyl)-1H-pyrazol-3-yl]-N-[(1R)-1-((4S)-2-oxo-1,3-oxazolidin-4-yl)-2-(pyridin-2-yl)ethyl]benzamide]
78%	O=C1OC[C@H]([C@@H](Cc2ccccn2)NC(=O)c2cccc(F)c2-c2cc(-c3ccc(F)cc3)[nH]n2)O1 [Example 47-2]
89%	O=C(N[C@H](Cc1ncccn1)[C@@H](O)CF)c1cccc(F)c1-c1cc(-c2ccc(F)cc2)[nH]n1 [Example 50-2]
99%	O=C(N[C@H](Cc1ccccn1)[C@H](F)CO)c1cccc(F)c1-c1cc(-c2ccc(Cl)cc2)[nH]n1 [Example 50-7]
100%	O=C(N[C@H](Cn1cccn1)[C@@H](F)CO)c1cccc(F)c1-c1cc(-c2ccc(F)cc2)[nH]n1 [Example 50-11]
62%	O=C(N[C@@H](CCO)C(O)c1ccccn1)c1cccc(F)c1-c1cc(-c2ccc(F)cc2)[nH]n1 (some centres unmarked) [Example 54-3]
50%	C[C@H](O)C[C@H](NC(=O)c1cccc(F)c1-c1cc(-c2ccc(F)cc2)[nH]n1)C(O)c1ccccn1 (some centres unmarked) [Example 54-4]
47%	O=C(N[C@H](Cc1ccccn1)[C@@H](O)CO)c1cccc(F)c1-c1cc(-c2ccc(F)cc2)[nH]n1 [Example 54-6]
41%	O=C(N[C@H](Cc1ccccn1)C[C@H](O)CO)c1cccc(F)c1-c1cc(-c2ccc(Cl)cc2)[nH]n1 [Example 54-7]
40%	O=C(N[C@H](Cc1ccccn1)[C@@H](O)CO)c1cccc(F)c1-c1n[nH]c(-c2ccc(F)cc2)c1F [Example 54-9]
77%	CC(c1ccccn1)[C@@H](NC(=O)c1cccc(F)c1-c1cc(-c2ccc(F)cc2)[nH]n1)[C@H](O)CO (some centres unmarked) [Example 54-14]
68%	COC(c1ccccn1)[C@@H](NC(=O)c1cccc(F)c1-c1cc(-c2ccc(F)cc2)[nH]n1)[C@H](O)CO (some centres unmarked) [Example 54-19]

Second part, the compound before the results:

SMILES	% inhibition of Wet-Dog Shake
O=C(N[C@@H](CO)Cc1ccccn1)c1ccccc1-c1cc(-c2ccc(F)cc2)[nH]n1 [Example 1-58]	86%
COC(c1ccccn1)[C@H](CO)NC(=O)c1cccc(Cl)c1-c1cc(-c2ccc(F)cc2)[nH]n1 (some centres unmarked) [Example 43-12]	92%
COC(c1ccccn1)[C@H](CO)NC(=O)c1cccc(F)c1-c1n[nH]c(-c2ccc(F)cc2)c1F (some centres unmarked) [Example 43-16]	97%
COC(c1ccccn1)[C@H](CO)NC(=O)c1ccccc1-c1n[nH]c(-c2ccc(F)cc2)c1F (some centres unmarked) [Example 43-17]	78%
CO[C@H](CO)[C@@H](Cc1ccccn1)NC(=O)c1cccc(F)c1-c1n[nH]c(-c2ccc(F)cc2)c1Cl [Example 43-36]	31%
O=C(N[C@H](Cn1cccn1)[C@H](F)CO)c1cccc(F)c1-c1cc(-c2ccc(Cl)cc2)[nH]n1 [Example 43-44]	69%
O=C(N[C@H](Cn1cccn1)[C@H](F)CO)c1cccc(Cl)c1-c1cc(-c2ccc(F)cc2)[nH]n1 [Example 43-45]	40%
O=C(N[C@H](Cn1cccn1)[C@H](F)CO)c1cccc(F)c1-c1cc(-c2ccc(F)cc2F)[nH]n1 [Example 43-46]	70%
O=C(N[C@H](Cc1ncccn1)C(F)(F)CO)c1cccc(F)c1-c1cc(-c2ccc(F)cc2)[nH]n1 [Example 50-4]	100%
O=C(N[C@H](Cn1cccn1)[C@@H](O)CF)c1cccc(F)c1-c1cc(-c2ccc(F)cc2)[nH]n1 [Example 50-8]	82%
CC(c1ccccn1)[C@@H](NC(=O)c1cccc(F)c1-c1n[nH]c(-c2ccc(F)cc2)c1F)[C@H](O)CO (some centres unmarked) [Example 54-17]	42%

test system: overactive bladder induced by acetic acid; assay: Confirmation test of elongation action of micturition interval of overactive bladder induced by acetic acid; format: in vivo; conditions: Rattus norvegicus, iv; urethane-anesthetized female SD rats, 1 mg/kg/mL via femoral vein, intravesical 0.25% acetic acid; interval after/before administration x100
Excerpt: Further, TRPM8 inhibitory activity can be evaluated by the efficacy inhibiting the wet-dog shake action which is induced by the administration of Icilin, TRPM8 agonist. Furthermore, an effect on overactive bladder (OAB) can be evaluated by an elongation of micturition interval against overactive bladder induced by acetic acid in accordance with a similar method described in J. Urol., 2001, 166, 1142. Confirmation Test of Elongation Action of Micturition Interval of Overactive Bladder Induced by Acetic Acid Urethane (sigma) was dissolved into pure water by 25% w/v, and female SD rats were anesthetized with 1.25 g/kg urethane by subcutaneous administration. Cannulae were placed in femoral vein and bladder, and the bladder cannula was connected to both a syringe pump and a pressure transducer. Detrusor overactivity was induced by intravesical infusion of 0.25% acetic acid in saline at a rate of 3.6 mL/h, and intravesical pressure was monitored via pressure transducer concurrently. Test compounds were dissolved into a mixture of dimethylacetamide and saline (20:80), and were administered via, the femoral vein. Elongation of micturition interval (%) by test compound was calculated from the following formula: [an average of the three micturition interval after administration/an average of the three micturition interval before administration]×100.

SMILES	response vs control in vivo at 1 mg/kg
O=C(N[C@@H](CCO)Cc1ccccn1)c1cccc(F)c1-c1cc(-c2ccc(F)cc2)[nH]n1 [Example 1-1, 3-Fluoro-2-[5-(4-fluorophenyl)-1H-pyrazol-3-yl]-N-[(2R)-4-hydroxy-1-(pyridin-2-yl)butan-2-yl]benzamide]	169%
NC(=O)[C@H](Cc1ccccc1)NC(=O)c1ccccc1-c1cc(-c2ccccc2)[nH]n1 [Example 1-14]	138%
O=C(N[C@@H](CO)Cc1ccccn1)c1ccccc1-c1cc(-c2ccc(F)cc2)[nH]n1 [Example 1-58]	159%
O=C(N[C@@H](CO)Cc1ccccn1)c1cccc(F)c1-c1cc(-c2ccc(F)cc2)[nH]n1 [Example 1-84]	183%
O=C(N[C@@H](CCO)Cc1ncccc1F)c1cccc(F)c1-c1cc(-c2ccc(F)cc2)[nH]n1 [Example 1-125]	223%
O=C(N[C@H](Cc1ccccn1)[C@H](O)CO)c1cccc(F)c1-c1cc(-c2ccc(F)cc2)[nH]n1 [Example 1-139]	163%
O=C(N[C@H](Cc1ccccn1)[C@H](O)CO)c1ccccc1-c1n[nH]c(-c2ccc(F)cc2)c1F [Example 1-172]	194%
CO[C@H](CO)[C@@H](Cc1ncccn1)NC(=O)c1cccc(F)c1-c1cc(-c2ccc(F)cc2)[nH]n1 [Example 1-227]	193%
CO[C@H](CO)[C@@H](Cc1ncccn1)NC(=O)c1ccccc1-c1cc(-c2ccc(F)cc2)[nH]n1 [Example 1-238]	136%
